Data set [1] deals with differentiated HL-60 cells. In kind it is cell-based, human. The following applies: 72 h. On the procedure: HEK-293 cells (American Type Culture Collection, Manassas, VA, USA) were maintained in DMEM (Thermo Fisher Scientific, Waltham, MA, USA) containing 10% FBS (Thermo Fisher Scientific) in a humidified atmosphere at 5% CO2 and 37 °C. Human acute leukemia-derived HL-60 cells (RIKEN Cell Bank, Ibaraki, Japan) were cultured in RPMI-1640 medium (Thermo Fisher Scientific) containing 10% FBS in a humidified atmosphere at 5% CO2 and 37 °C. HL-60 cells were treated with 500 μM dibutyryl-cAMP (Sigma-Aldrich, St. Louis, MO, USA) for 72 h to differentiate the cells into neutrophilic/granulocytic cells as described elsewhere. The ability of MCT-2-related peptides to activate HL-60 cells differentiated into neutrophilic/granulocytic cells was evaluated by stimulation of β-hexosaminidase secretion from the cells. Briefly, differentiated HL-60 cells were washed 3 times with ice-cold HEPES-buffered Hank’s solution (HBHS; 10 mM HEPES, 136.9 mM NaCl, 5.4 mM KCl, 1.2 mM CaCl2, 0.44 mM KH2PO4, 0.49 mM MgCl2, 0.41 mM MgSO4, 0.34 mM Na2HPO4, 5.5 mM glucose, 4.2 mM NaHCO3, and 0.1% BSA, pH 7.4). The cells were resuspended in HBHS at a density of 5.6 × 10^6 cells/mL, and DNase I (Sigma-Aldrich) and cytochalasin B (Sigma-Aldrich) were each added at a final concentration of 5 μg/mL. The cell suspension in each tube (5.0 × 10^5 cells/90 μL) was preincubated at 37 °C for 10 min and stimulated with 10 μL synthetic peptide solution at 37 °C for 10 min. The inhibitory effects of inhibitors against FPR1 [CysH (Sigma-Aldrich)] and FPR2 [PBP10 (Tocris Bioscience, Bristol, UK)] on β-hexosaminidase release induced by MCT-2 and its derivatives were also evaluated in the differentiated HL-60 cells; each cell suspension prepared as above (90 μL) was transferred to a tube (5.0 × 10^5 cells/tube) with 5 μL inhibitor solution for FPR1 (CysH) or FPR2 (PBP10). Each tube was then preincubated at 37 °C for 10 min and stimulated with 5 μL synthetic peptide solution at 37 °C for 10 min. After stimulation, 200 μL ice-cold reaction quenching buffer (25 mM Tris, 123 mM NaCl, and 2.7 mM KCl, pH 7.4) was added to each cell suspension to stop the reaction. Thereafter, these tubes were centrifuged at 4 °C and 2300× g for 1 min, and each supernatant was transferred into a new tube. β-Hexosaminidase activity in the supernatant was measured as described previously. Briefly, 90 μL supernatant was transferred to each well of a 96-well microtiter plate, and 60 μL of a substrate solution for β-hexosaminidase [10 mM p-nitrophenyl N-acetyl-β-D-glucosaminide (Sigma-Aldrich), 40 mM citrate, and 70 mM NaHPO4, pH 4.5] was added to initiate the enzyme reaction. After incubation of the plate at 37 °C for 1 h, 100 μL of 400 mM glycine (pH 10.7) was added to stop the reaction. The absorbance at 415 nm for the resulting p-nitrophenol and at 490 nm for the reference was measured using a microtiter plate reader (Viento XS; BioTek Instruments, Winooski, VT, USA). The ability of each peptide to induce β-hexosaminidase release was expressed as a percentage of enzyme secretion promoted by 10 μM MCT-2(1–15) that induced the maximum response for the elucidation of full or partial agonists to the activity of MCT-2(1–15) (Figure 2 and Figure 4, Table 2) or a percentage of the total enzyme activity, which was the enzyme activity released after disruption of the cells with 0.05% Triton X-100 (Figure 3).

Data set [2] in a line: Time-dependent alteration of molecular forms of MCT-2(1–15) in mouse serum (RP-HPLC, MALDI-TOF-MS). In kind it is in vitro ADME. Particulars: 37 °C; for time of maximum amount of the degradation product in serum: RP-HPLC, MALDI-TOF-MS. Here is the method: Male C57BL/6JJcl mice, 12–14 weeks of age, weighing 25–30 g, were anesthetized (50 mg/kg pentobarbital), and blood was collected from the caudal vena cava and stored overnight at 4 °C. The blood sample was centrifuged at 4 °C and 20,000× g for 20 min, and the supernatant was transferred to a new tube as mouse serum and stored at −80 °C. MCT-2(1–15) was incubated in mouse serum at a final concentration of 500 μM at 37 °C, and aliquots (100 μL) were collected from the incubation mixture after 0, 1, 2, 4, 24, and 48 h. These aliquots were mixed with TCA (final concentration: 3% w/v) and kept on ice for 30 min to precipitate denatured proteins. The samples were centrifuged at 4 °C and 13,000× g for 15 min, and the supernatants were analyzed by RP-HPLC on a C18 column (4.6 × 150 mm, Cosmosil; Nacalai Tesque, Inc.). RP-HPLC peaks that contained MCT-2(1–15) and its derivative peptides were analyzed by MALDI-TOF-MS to identify their molecular forms.

Another data set is described as follows: mouse serum. The following applies: Male C57BL/6JJcl mice, 37 °C, up to 48 h.
Setting [3] is: product formed from 500 μM MCT-2(1–15) in mouse serum.
Where [4] appears, read: product formed from 500 μM MCT-2(1–15) in mouse serum, 4 h.

The values below come from publication PMC8071274 (International Journal of Molecular Sciences, 2021).

A word on the EC50: it is the concentration at which the effect is half-maximal. The low end stands for greater potency, the high end for weaker potency. A word on the half-life: it is how long it takes for the measured level to halve. A high value points to slow loss.

Entries after “also recorded” stand apart in the source; their conditions may differ. Where a SMILES comes first, the peptide text is derived from it. Where no end group is shown, it is not given here. The star is where a group is joined. For = O=C*

`CSCC[C@H](NC(=O)[C@@H]1CCCN1C(=O)[C@@H](NC(=O)[C@H](CCSC)NC=O)[C@@H](C)O)C(=O)O` [MCT-2(1–4)] (For-MTPM-OH) registered an EC50 in data set [1] of 18 µM. In data set [2] (setting [3]), the “time of first detection of the degradation product in serum” value (“time of first detection … in serum” for short) stood at 1 h, the “time the degradation product was present in serum” value is “more than 48 h” and the “time of maximum amount of the degradation product in serum” value (“time of maximum amount … in serum” for short) amounted to 4 h. In addition, in data set [2] (product formed from 500 μM MCT-2(1–15) in mouse serum, 48 h), the “presence of the degradation product in serum at 48 h” value is reported as “still present”.
Regarding `CC[C@H](C)[C@H](NC(=O)[C@H](CCCCN)NC(=O)[C@H](CCCNC(=N)N)NC(=O)[C@H](CCSC)NC(=O)[C@@H]1CCCN1C(=O)[C@@H](NC(=O)[C@H](CCSC)NC=O)[C@@H](C)O)C(=O)N[C@@H](CC(N)=O)C(=O)N1CCC[C@H]1C(=O)N[C@@H](CC(C)C)C(=O)O` [MCT-2(1–10)] (For-MTPMRKINPL-OH), in data set [1], the EC50 is 1.8 ± 0.173 µM. Besides, in data set [2] (setting [3]), the “time of first detection … in serum” value came to 1 h and the “time of maximum amount … in serum” value turned out to be 2 h. The “presence of the degradation product in serum at 4 h” value in data set [2] (setting [4]) is “not found”.
Take `CC[C@H](C)[C@H](NC(=O)[C@H](CCCCN)NC(=O)[C@H](CCCNC(=N)N)NC(=O)[C@H](CCSC)NC(=O)[C@@H]1CCCN1C(=O)[C@@H](NC(=O)[C@H](CCSC)NC=O)[C@@H](C)O)C(=O)N[C@@H](CC(N)=O)C(=O)N1CCC[C@H]1C(=O)N[C@@H](CC(C)C)C(=O)N[C@@H](CCSC)C(=O)O` [MCT-2(1–11)] (For-MTPMRKINPLM-OH): the EC50 in data set [1] was found to be 0.547 ± 0.0939 µM. In data set [2] (setting [3]), the “time of first detection … in serum” value is given as 1 h and the “time of maximum amount … in serum” value is on record as 1 h. Also, in data set [2] (setting [4]), the “presence of the degradation product in serum at 4 h” value was “not found”.
On to `CC[C@H](C)[C@H](NC(=O)[C@H](CC(C)C)NC(=O)[C@H](CCCCN)NC(=O)[C@H](CCSC)NC(=O)[C@H](CC(C)C)NC(=O)[C@@H]1CCCN1C(=O)[C@H](CC(N)=O)NC(=O)[C@@H](NC(=O)[C@H](CCCCN)NC(=O)[C@H](CCCNC(=N)N)NC(=O)[C@H](CCSC)NC(=O)[C@@H]1CCCN1C(=O)[C@@H](NC(=O)[C@H](CCSC)NC=O)[C@@H](C)O)[C@@H](C)CC)C(=O)N[C@@H](CC(N)=O)C(=O)O` [MCT-2(1–15), Mitocryptide-2] (For-MTPMRKINPLMKLIN-OH), for which the midpoint of the response in data set [1], the EC50, lay at 0.02 ± 0.00339 µM. Besides, the metabolised at 1 h, 500 μM in data set [2] (male, C57BL/6JJcl, mouse serum, 500 μM peptide, 1 h, TCA precipitation, RP-HPLC (214 nm), read-out: reduction of amount of peptide in serum at 1 h) was roughly 50%. In data set [2] (male, C57BL/6JJcl, mouse serum, 500 μM peptide, 2 h, TCA precipitation, RP-HPLC (214 nm), read-out: reduction of amount of peptide in serum at 2 h), the metabolised at 2 h, 500 μM was roughly 80%. This molecule also had a half-life at 500 μM in data set [2] (male, C57BL/6JJcl, mouse serum, 500 μM peptide, RP-HPLC (214 nm)) of roughly 1 h. Besides, in data set [2] (mouse serum, 500 μM peptide, 4 h, RP-HPLC (214 nm)), the “peptide remaining in serum at 4 h” value is reported as “completely disappeared”.
In the case of `CC[C@H](C)[C@H](NC(=O)[C@H](CC(C)C)NC(=O)[C@H](CCCCN)NC(=O)[C@H](C)NC(=O)[C@H](CC(C)C)NC(=O)[C@@H]1CCCN1C(=O)[C@H](CC(N)=O)NC(=O)[C@@H](NC(=O)[C@H](CCCCN)NC(=O)[C@H](CCCNC(=N)N)NC(=O)[C@H](CCSC)NC(=O)[C@@H]1CCCN1C(=O)[C@@H](NC(=O)[C@H](CCSC)NC=O)[C@@H](C)O)[C@@H](C)CC)C(=O)N[C@@H](CC(N)=O)C(=O)O` [[Ala^11]MCT-2] (For-MTPMRKINPLAKLIN-OH), a half-maximal effect in data set [1] (EC50) was put at 0.0367 ± 0.011 µM.
Same read-out and setting: then `CC[C@H](C)[C@H](NC(=O)[C@H](CC(C)C)NC(=O)[C@H](C)NC(=O)[C@H](CCSC)NC(=O)[C@H](CC(C)C)NC(=O)[C@@H]1CCCN1C(=O)[C@H](CC(N)=O)NC(=O)[C@@H](NC(=O)[C@H](CCCCN)NC(=O)[C@H](CCCNC(=N)N)NC(=O)[C@H](CCSC)NC(=O)[C@@H]1CCCN1C(=O)[C@@H](NC(=O)[C@H](CCSC)NC=O)[C@@H](C)O)[C@@H](C)CC)C(=O)N[C@@H](CC(N)=O)C(=O)O` [[Ala^12]MCT-2] (For-MTPMRKINPLMALIN-OH), with 0.0123 ± 0.00029 µM; and `CC[C@H](C)[C@H](NC(=O)[C@H](C)NC(=O)[C@H](CCCCN)NC(=O)[C@H](CCSC)NC(=O)[C@H](CC(C)C)NC(=O)[C@@H]1CCCN1C(=O)[C@H](CC(N)=O)NC(=O)[C@@H](NC(=O)[C@H](CCCCN)NC(=O)[C@H](CCCNC(=N)N)NC(=O)[C@H](CCSC)NC(=O)[C@@H]1CCCN1C(=O)[C@@H](NC(=O)[C@H](CCSC)NC=O)[C@@H](C)O)[C@@H](C)CC)C(=O)N[C@@H](CC(N)=O)C(=O)O` [[Ala^13]MCT-2] (For-MTPMRKINPLMKAIN-OH), with 0.0837 ± 0.00354 µM; and `CC[C@H](C)[C@H](NC(=O)[C@H](CCCCN)NC(=O)[C@H](CCCNC(=N)N)NC(=O)[C@H](CCSC)NC(=O)[C@@H]1CCCN1C(=O)[C@@H](NC(=O)[C@H](CCSC)NC=O)[C@@H](C)O)C(=O)N[C@@H](CC(N)=O)C(=O)N1CCC[C@H]1C(=O)N[C@@H](CC(C)C)C(=O)N[C@@H](CCSC)C(=O)N[C@@H](CCCCN)C(=O)N[C@@H](CC(C)C)C(=O)N[C@@H](C)C(=O)N[C@@H](CC(N)=O)C(=O)O` [[Ala^14]MCT-2] (For-MTPMRKINPLMKLAN-OH), with 0.0767 ± 0.0119 µM.
For the molecule `CC[C@H](C)[C@H](NC(=O)[C@H](CC(C)C)NC(=O)[C@H](CCCCN)NC(=O)[C@H](CCSC)NC(=O)[C@H](CC(C)C)NC(=O)[C@@H]1CCCN1C(=O)[C@H](CC(N)=O)NC(=O)[C@@H](NC(=O)[C@H](CCCCN)NC(=O)[C@H](CCCNC(=N)N)NC(=O)[C@H](CCSC)NC(=O)[C@@H]1CCCN1C(=O)[C@@H](NC(=O)[C@H](CCSC)NC=O)[C@@H](C)O)[C@@H](C)CC)C(=O)N[C@@H](C)C(=O)O` [[Ala^15]MCT-2] (For-MTPMRKINPLMKLIA-OH), in data set [1], the concentration giving a half-maximal response (EC50) stood at 0.0293 ± 0.00149 µM.
Regarding For-MTPMRKINPLMKLIN, the fragment found entry in “mouse serum” is reported as “MCT-2(1–11), 1 h; also recorded: MCT-2(1–10), 1 h; also recorded: MCT-2(1–4), 1 h”.
MTPMRKINPLMKLIN [Des-N-formyl MCT-2]: the EC50 in data set [1] is greater than 1000 µM.
